{"source": "patent US5733904A", "about": "“Method for prevention and treatment of viral infectious diseases for viral suppression” (priority 1996, dated 1998)", "key": {"[1]": {"system": "Env (gp120) protein, HIV-1 infected MOLT-4 cells", "assay": "Suppressive action on expression of Env (gp120) protein on the surface of cells", "type": "cell-based", "conditions": "FIG. 3; Env positive cells after 5 days", "protocol": "(Suppressive action on expression of Env (gp120) protein on the surface of cells.)\nCells obtained by culturing MOLT-4 (culture condition: 37° C., 5% CO2 /95% air, RPMI medium (GIBCO Corp.) containing 10% FBS) were adjusted to a preferable number of cells (1×10^5 cells/50 μl ). The cell suspension, 50 μl, (infected with MOLT-4 and HIV-1: M.O.I.=1.0) was put in a 96 hole microplate and cultured for 1 hour to infect the cells.\nA solution of the compound shown below, 100 μl, was added in each well and cultured for 5 days. The cultured solution was transferred into a plastic tube (Eppendorf Corp.) and centrifuged to collect the cells. The cells were treated with mouse anti-Env gp120 monoclonal antibody (Replingen Inc.) as a primary antibody and FITC (Fluorescein Isothiocyanate) labelled goat anti-mouse IgG (Cappel Corp.) as a secondary antibody to fluoresce. The number of fluorescent cells was fluoroscopically calculated by counting fluorescent cells according to an indirect fluorescent antibody technique (Techniques in HIV Research, Ed. A. Aldoriny and B. D. Walker, Stokton Press, New York, 1990).\nEnv positive cells (%) was calculated by the following equation:\nEnv positive cells (%)=(FITC) positive cells/total cells)×100\nCompounds: FAS, H-7 and KN-62.\nControl: solution without compound was used."}, "Acute toxicity in rats": {"assay": "Acute toxicity in rats", "design": "species or system rat (Jcl: Wistar, 5 weeks)", "conditions": "rat, in vivo", "protocol": "(§1) Acute toxicity of the compounds of the present invention were conducted on rats and mice, and low toxicity was confirmed."}, "Acute toxicity in mice": {"assay": "Acute toxicity in mice", "design": "species or system mouse (Slc: ddy, 5 weeks)", "conditions": "mouse, in vivo, iv, i. v., male", "protocol": "as §1"}, "[2]": {"system": "Herpes simplex virus type I", "assay": "Inhibitory action for plaque formation of Herpes simplex virus type I", "type": "cell-based", "conditions": "mean of two, control 51", "protocol": "(§2) Experiments were performed according to a method described in Antiviral Chemistry and Chemotherapy, 5 (6), 366-371, 1994 and Experimental Virology, Ed. by NIH Japan alumni assoc., Maruzen Publ. 1982, p. 65-78 or p. 331-340.\n(§3) Vero cells cultured in the medium (Dulbecco's modified MEM added with 10% FBS) were detached by trypsin (Sigma Corp.). The detached cells were suspended by 2×10^5 cells/ml in the same medium, and placed in the wells of a 48 hole plate. The plate was incubated at 37° C. under 5% CO2 for about one day to complete a full-sheet of the cells in all wells. After incubation, cultured supernatant was removed. A solution (50 μl) containing the compound diluted with 4-fold stepwise dilution by virus culture medium (MM: Dulbecco's modified MEM added with 2% FBS), was added thereto.\n(§4) A viral solution, 50 μl, in which the number of virus (parainfluenza virus or Herpes simplex virus type I) was adjusted to about 50 pfu (plaque forming unit)/50 μl by MM, was added to each well. MM 400 μl containing 1% methylcellulose was added in each well to provide a compound-added test group. A control group was prepared by adding the viral culture medium without adding the test compound.\n(§5) The groups were incubated at 37° C. under 5% CO2 for three days to form plaques and the number of plaques in each well was counted.\n(§6) The test compounds were FAS, and the compound of formula [I] where R^1 is hydroxy. The final concentration of the compound in the solution was set to 100, 25, 6.3 and 1.6 μg/ml, respectively. Each test group included 2 wells and a mean of the plaque numbers was obtained."}, "parainfluenza virus": {"system": "parainfluenza virus", "assay": "Inhibitory action for plaque formation of parainfluenza virus", "type": "cell-based", "conditions": "mean of two, control 51.5", "protocol": "as §2, §3, §4, §5, §6"}}, "data": [{"smiles": "Cl.O=S(=O)(c1cccc2cnccc12)N1CCCNCC1", "note": "[FAS, hexahydro-1-(5-isoquinoline-sulfonyl)-1H-1,4-diazepine hydrochloride]", "values": [{"measurement": "inhibitory activity for Env expression", "setting": "[1]", "result": "strong inhibitory activity for Env expression"}, {"measurement": "LD50", "setting": "Acute toxicity in rats; iv, i. v., female", "result": 63.9, "unit": "mg/kg"}, {"measurement": "LD50", "setting": "Acute toxicity in rats; iv, i. v., male", "result": 59.9, "unit": "mg/kg"}, {"measurement": "LD50", "setting": "Acute toxicity in rats; po, p. o., female", "result": 348, "unit": "mg/kg"}, {"measurement": "LD50", "setting": "Acute toxicity in rats; po, p. o., male", "result": 335, "unit": "mg/kg"}, {"measurement": "LD50", "setting": "Acute toxicity in rats; sc, s. c., female", "result": 128, "unit": "mg/kg"}, {"measurement": "LD50", "setting": "Acute toxicity in rats; sc, s. c., male", "result": 123, "unit": "mg/kg"}, {"measurement": "LD50", "setting": "Acute toxicity in mice", "result": 63.7, "unit": "mg/kg"}, {"measurement": "Plaque No.", "setting": "[2]; 1.6 μg/ml", "result": 51}, {"measurement": "Plaque No.", "setting": "[2]; 6.3 μg/ml", "result": 46}, {"measurement": "Plaque No.", "setting": "[2]; 25 μg/ml", "result": 49}, {"measurement": "Plaque No.", "setting": "[2]; 100 μg/ml", "result": 0}, {"measurement": "Plaque No.", "setting": "parainfluenza virus; 6.3 μg/ml", "result": 50.5}, {"measurement": "Plaque No.", "setting": "parainfluenza virus; 25 μg/ml", "result": 36}, {"measurement": "Plaque No.", "setting": "parainfluenza virus; 100 μg/ml", "result": 3.5}]}]}
